{
  "source": "ChEMBL document CHEMBL1909046",
  "about": "“DrugMatrix in vitro pharmacology data”",
  "data": [
    {"target": "T1, Amine oxidase [flavin-containing] A (Homo sapiens, UniProt P21397)", "T1 sequence (P21397 whole entry)": "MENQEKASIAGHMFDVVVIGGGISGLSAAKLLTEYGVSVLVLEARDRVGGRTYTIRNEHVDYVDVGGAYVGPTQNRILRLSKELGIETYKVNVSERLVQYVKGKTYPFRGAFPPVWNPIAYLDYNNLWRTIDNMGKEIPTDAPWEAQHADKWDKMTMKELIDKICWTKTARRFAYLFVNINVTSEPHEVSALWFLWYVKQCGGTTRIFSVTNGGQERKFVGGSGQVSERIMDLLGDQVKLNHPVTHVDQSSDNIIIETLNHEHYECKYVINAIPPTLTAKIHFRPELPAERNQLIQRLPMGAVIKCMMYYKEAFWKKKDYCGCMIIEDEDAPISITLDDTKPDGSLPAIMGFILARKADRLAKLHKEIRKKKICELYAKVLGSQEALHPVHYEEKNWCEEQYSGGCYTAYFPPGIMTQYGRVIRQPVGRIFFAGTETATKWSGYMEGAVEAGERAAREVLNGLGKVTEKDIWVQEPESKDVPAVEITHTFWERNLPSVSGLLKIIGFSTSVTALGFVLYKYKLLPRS", "assay": "DRUGMATRIX: Monoamine Oxidase MAO-A enzyme inhibition (substrate: Kynuramine)", "set-up": "species or system BTI-TN-5B1-4", "settings": "bti-tn-5b1-4; Not Active = under 50% inhibition at 10 µM", "values": [
      {"smiles": "C#C[C@]1(O)CC[C@H]2[C@@H]3[C@H](C)CC4=C(CCC(=O)C4)[C@H]3CC[C@@]21C", "note": "[TIBOLONE]", "IC50": "Not Active"},
      {"smiles": "C[N+]1(C)[C@@H]2C[C@@H](OC(=O)[C@H](CO)c3ccccc3)C[C@H]1[C@@H]1O[C@@H]12.[Br-]", "note": "[METHSCOPOLAMINE BROMIDE]", "IC50": "Not Active"},
      {"smiles": "CC[C@H](C)[C@@H](CO[C@@H](Cc1ccccc1)C(=O)N[C@@H](CCS(C)(=O)=O)C(=O)OC(C)C)NC[C@@H](N)CS", "IC50": "Not Active"},
      {"smiles": "CCN1CCCC1CNC(=O)c1cc(S(N)(=O)=O)ccc1OC", "note": "(configuration not stated) [SULPIRIDE]", "IC50": "Not Active"}
    ]},
    {"test_system": "not listed separately", "assay": "(§1) DRUGMATRIX: Calcium Channel Type L, Dihydropyridine radioligand binding (ligand: [3H] Nitrendipine)", "type": "cell membranes, Rattus norvegicus, Wistar, Cerebral cortex, Membrane", "settings": "Not Active = under 50% inhibition at 10 µM", "values": [
      {"smiles": "C#C[C@]1(O)CC[C@H]2[C@@H]3[C@H](C)CC4=C(CCC(=O)C4)[C@H]3CC[C@@]21C", "note": "[TIBOLONE]", "IC50": "Not Active", "Ki": "Not Active"},
      {"smiles": "C[N+]1(C)[C@@H]2C[C@@H](OC(=O)[C@H](CO)c3ccccc3)C[C@H]1[C@@H]1O[C@@H]12.[Br-]", "note": "[METHSCOPOLAMINE BROMIDE]", "IC50": "Not Active", "Ki": "Not Active"},
      {"smiles": "CCN1CCCC1CNC(=O)c1cc(S(N)(=O)=O)ccc1OC", "note": "(configuration not stated) [SULPIRIDE]", "IC50": "Not Active", "Ki": "Not Active"}
    ]},
    {"target": "not listed separately", "assay": "as §1", "type": "cell membranes, Rattus norvegicus, Wistar, Cerebral cortex, Membrane", "settings": "Not Active = under 50% inhibition at 10 µM; read-out: IC50", "units": {"IC50": "µM"}, "values": [
      {"smiles": "CC[C@H](C)[C@@H](CO[C@@H](Cc1ccccc1)C(=O)N[C@@H](CCS(C)(=O)=O)C(=O)OC(C)C)NC[C@@H](N)CS", "IC50": 4.5}
    ]},
    {"target": "not listed separately", "assay": "as §1", "type": "cell membranes, Rattus norvegicus, Wistar, Cerebral cortex, Membrane", "settings": "Not Active = under 50% inhibition at 10 µM; read-out: Ki", "units": {"Ki": "µM"}, "values": [
      {"smiles": "CC[C@H](C)[C@@H](CO[C@@H](Cc1ccccc1)C(=O)N[C@@H](CCS(C)(=O)=O)C(=O)OC(C)C)NC[C@@H](N)CS", "Ki": 2.89}
    ]},
    {"target": "T2, Cathepsin G (Homo sapiens, UniProt P08311)", "T2 sequence (P08311 whole entry)": "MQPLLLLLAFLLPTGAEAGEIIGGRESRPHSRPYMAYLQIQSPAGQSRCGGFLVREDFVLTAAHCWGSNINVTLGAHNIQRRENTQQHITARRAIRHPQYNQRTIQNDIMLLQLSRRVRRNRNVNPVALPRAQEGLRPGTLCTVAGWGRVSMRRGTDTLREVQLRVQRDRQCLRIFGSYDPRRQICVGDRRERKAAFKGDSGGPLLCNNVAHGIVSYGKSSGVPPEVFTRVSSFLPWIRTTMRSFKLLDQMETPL", "assay": "biochemical", "type": "tissue-based, Neutrophil", "settings": "neutrophil", "values": [
      {"smiles": "C#C[C@]1(O)CC[C@H]2[C@@H]3[C@H](C)CC4=C(CCC(=O)C4)[C@H]3CC[C@@]21C", "note": "[TIBOLONE]", "IC50": "Not Active"},
      {"smiles": "C[N+]1(C)[C@@H]2C[C@@H](OC(=O)[C@H](CO)c3ccccc3)C[C@H]1[C@@H]1O[C@@H]12.[Br-]", "note": "[METHSCOPOLAMINE BROMIDE]", "IC50": "Not Active"},
      {"smiles": "CC[C@H](C)[C@@H](CO[C@@H](Cc1ccccc1)C(=O)N[C@@H](CCS(C)(=O)=O)C(=O)OC(C)C)NC[C@@H](N)CS", "IC50": "Not Active"},
      {"smiles": "CCN1CCCC1CNC(=O)c1cc(S(N)(=O)=O)ccc1OC", "note": "(configuration not stated) [SULPIRIDE]", "IC50": "Not Active"}
    ]},
    {"target": "T3, Angiotensin-converting enzyme (Oryctolagus cuniculus, UniProt P12822)", "T3 sequence (P12822 whole entry)": "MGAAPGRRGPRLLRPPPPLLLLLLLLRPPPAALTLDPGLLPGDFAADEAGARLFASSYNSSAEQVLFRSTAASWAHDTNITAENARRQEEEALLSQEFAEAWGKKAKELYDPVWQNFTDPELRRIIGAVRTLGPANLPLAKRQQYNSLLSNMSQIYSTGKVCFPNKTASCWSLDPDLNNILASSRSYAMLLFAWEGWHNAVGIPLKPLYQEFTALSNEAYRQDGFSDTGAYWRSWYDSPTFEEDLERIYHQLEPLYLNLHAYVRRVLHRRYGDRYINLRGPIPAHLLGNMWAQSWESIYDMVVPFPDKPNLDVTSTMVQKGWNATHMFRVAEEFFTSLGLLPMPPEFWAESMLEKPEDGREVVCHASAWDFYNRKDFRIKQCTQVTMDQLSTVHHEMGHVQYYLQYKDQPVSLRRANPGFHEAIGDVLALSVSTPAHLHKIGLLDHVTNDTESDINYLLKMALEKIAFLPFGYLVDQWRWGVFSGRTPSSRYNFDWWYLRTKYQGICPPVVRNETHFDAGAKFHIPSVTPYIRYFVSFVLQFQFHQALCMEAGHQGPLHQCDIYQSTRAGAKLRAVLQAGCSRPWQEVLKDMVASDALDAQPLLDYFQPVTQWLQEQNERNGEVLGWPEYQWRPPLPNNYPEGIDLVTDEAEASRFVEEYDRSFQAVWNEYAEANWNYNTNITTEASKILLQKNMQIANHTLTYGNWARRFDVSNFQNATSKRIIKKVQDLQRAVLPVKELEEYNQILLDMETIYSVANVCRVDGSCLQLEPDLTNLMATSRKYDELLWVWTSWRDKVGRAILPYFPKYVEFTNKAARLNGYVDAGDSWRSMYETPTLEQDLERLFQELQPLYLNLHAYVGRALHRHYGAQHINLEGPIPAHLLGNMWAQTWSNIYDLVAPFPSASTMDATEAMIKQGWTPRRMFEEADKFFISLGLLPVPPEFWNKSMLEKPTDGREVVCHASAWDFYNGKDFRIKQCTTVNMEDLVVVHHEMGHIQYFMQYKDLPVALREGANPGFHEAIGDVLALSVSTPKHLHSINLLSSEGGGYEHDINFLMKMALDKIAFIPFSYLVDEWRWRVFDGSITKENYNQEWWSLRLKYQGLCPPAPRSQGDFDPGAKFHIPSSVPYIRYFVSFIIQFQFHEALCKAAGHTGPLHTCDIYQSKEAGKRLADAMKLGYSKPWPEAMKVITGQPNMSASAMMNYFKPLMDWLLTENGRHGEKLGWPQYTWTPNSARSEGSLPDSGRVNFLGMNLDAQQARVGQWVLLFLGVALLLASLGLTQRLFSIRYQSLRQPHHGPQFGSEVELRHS", "assay": "biochemical", "type": "tissue-based, Lung", "settings": "not given", "values": [
      {"smiles": "C#C[C@]1(O)CC[C@H]2[C@@H]3[C@H](C)CC4=C(CCC(=O)C4)[C@H]3CC[C@@]21C", "note": "[TIBOLONE]", "IC50": "Not Active"},
      {"smiles": "C[N+]1(C)[C@@H]2C[C@@H](OC(=O)[C@H](CO)c3ccccc3)C[C@H]1[C@@H]1O[C@@H]12.[Br-]", "note": "[METHSCOPOLAMINE BROMIDE]", "IC50": "Not Active"},
      {"smiles": "CC[C@H](C)[C@@H](CO[C@@H](Cc1ccccc1)C(=O)N[C@@H](CCS(C)(=O)=O)C(=O)OC(C)C)NC[C@@H](N)CS", "IC50": "Not Active"},
      {"smiles": "CCN1CCCC1CNC(=O)c1cc(S(N)(=O)=O)ccc1OC", "note": "(configuration not stated) [SULPIRIDE]", "IC50": "Not Active"}
    ]},
    {"target": "T4, Calcitonin receptor (Homo sapiens, UniProt P30988)", "T4 sequence (P30988 whole entry)": "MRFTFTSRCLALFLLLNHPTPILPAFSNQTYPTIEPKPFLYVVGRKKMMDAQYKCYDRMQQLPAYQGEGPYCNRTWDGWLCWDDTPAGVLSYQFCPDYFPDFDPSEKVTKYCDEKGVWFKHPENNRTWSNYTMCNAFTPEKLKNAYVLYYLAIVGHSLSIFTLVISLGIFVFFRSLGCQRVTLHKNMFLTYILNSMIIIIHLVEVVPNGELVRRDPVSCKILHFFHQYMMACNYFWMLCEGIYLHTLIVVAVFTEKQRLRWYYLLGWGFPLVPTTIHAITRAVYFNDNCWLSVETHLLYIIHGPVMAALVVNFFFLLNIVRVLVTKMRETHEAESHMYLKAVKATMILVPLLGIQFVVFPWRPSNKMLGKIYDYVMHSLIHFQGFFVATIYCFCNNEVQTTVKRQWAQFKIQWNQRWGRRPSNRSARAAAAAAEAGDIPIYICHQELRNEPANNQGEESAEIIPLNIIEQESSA", "assay": "not given", "type": "cell membranes, Membrane", "settings": "t47d", "values": [
      {"smiles": "C#C[C@]1(O)CC[C@H]2[C@@H]3[C@H](C)CC4=C(CCC(=O)C4)[C@H]3CC[C@@]21C", "note": "[TIBOLONE]", "IC50": "Not Active"},
      {"smiles": "C[N+]1(C)[C@@H]2C[C@@H](OC(=O)[C@H](CO)c3ccccc3)C[C@H]1[C@@H]1O[C@@H]12.[Br-]", "note": "[METHSCOPOLAMINE BROMIDE]", "IC50": "Not Active"},
      {"smiles": "CC[C@H](C)[C@@H](CO[C@@H](Cc1ccccc1)C(=O)N[C@@H](CCS(C)(=O)=O)C(=O)OC(C)C)NC[C@@H](N)CS", "IC50": "Not Active"},
      {"smiles": "CCN1CCCC1CNC(=O)c1cc(S(N)(=O)=O)ccc1OC", "note": "(configuration not stated) [SULPIRIDE]", "IC50": "Not Active"}
    ]},
    {"target": "Beta-1 adrenergic receptor (Homo sapiens, UniProt P08588)", "sequence (P08588 whole entry)": "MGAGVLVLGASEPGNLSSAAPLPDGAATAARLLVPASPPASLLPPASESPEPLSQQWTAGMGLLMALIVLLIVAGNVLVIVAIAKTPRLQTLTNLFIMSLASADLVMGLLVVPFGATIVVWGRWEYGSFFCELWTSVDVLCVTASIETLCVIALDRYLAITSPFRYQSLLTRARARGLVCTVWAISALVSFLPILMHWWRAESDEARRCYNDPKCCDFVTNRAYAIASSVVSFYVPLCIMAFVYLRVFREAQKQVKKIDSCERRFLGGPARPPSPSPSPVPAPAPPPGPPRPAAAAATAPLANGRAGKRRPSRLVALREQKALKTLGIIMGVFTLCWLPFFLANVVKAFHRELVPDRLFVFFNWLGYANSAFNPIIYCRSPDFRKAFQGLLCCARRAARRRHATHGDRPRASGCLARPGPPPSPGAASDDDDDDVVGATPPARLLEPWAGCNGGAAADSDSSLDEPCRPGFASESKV", "assay": "DRUGMATRIX: Adrenergic beta1 radioligand binding (ligand: [125I] Cyanopindolol)", "type": "cell membranes, CHO-K1, Membrane", "settings": "cho-k1; Not Active = under 50% inhibition at 10 µM", "values": [
      {"smiles": "C#C[C@]1(O)CC[C@H]2[C@@H]3[C@H](C)CC4=C(CCC(=O)C4)[C@H]3CC[C@@]21C", "note": "[TIBOLONE]", "IC50": "Not Active"},
      {"smiles": "C[N+]1(C)[C@@H]2C[C@@H](OC(=O)[C@H](CO)c3ccccc3)C[C@H]1[C@@H]1O[C@@H]12.[Br-]", "note": "[METHSCOPOLAMINE BROMIDE]", "IC50": "Not Active"},
      {"smiles": "CC[C@H](C)[C@@H](CO[C@@H](Cc1ccccc1)C(=O)N[C@@H](CCS(C)(=O)=O)C(=O)OC(C)C)NC[C@@H](N)CS", "IC50": "Not Active"},
      {"smiles": "CCN1CCCC1CNC(=O)c1cc(S(N)(=O)=O)ccc1OC", "note": "(configuration not stated) [SULPIRIDE]", "IC50": "Not Active"}
    ]},
    {"target": "Acetylcholinesterase (Homo sapiens, UniProt P22303)", "sequence (P22303 whole entry)": "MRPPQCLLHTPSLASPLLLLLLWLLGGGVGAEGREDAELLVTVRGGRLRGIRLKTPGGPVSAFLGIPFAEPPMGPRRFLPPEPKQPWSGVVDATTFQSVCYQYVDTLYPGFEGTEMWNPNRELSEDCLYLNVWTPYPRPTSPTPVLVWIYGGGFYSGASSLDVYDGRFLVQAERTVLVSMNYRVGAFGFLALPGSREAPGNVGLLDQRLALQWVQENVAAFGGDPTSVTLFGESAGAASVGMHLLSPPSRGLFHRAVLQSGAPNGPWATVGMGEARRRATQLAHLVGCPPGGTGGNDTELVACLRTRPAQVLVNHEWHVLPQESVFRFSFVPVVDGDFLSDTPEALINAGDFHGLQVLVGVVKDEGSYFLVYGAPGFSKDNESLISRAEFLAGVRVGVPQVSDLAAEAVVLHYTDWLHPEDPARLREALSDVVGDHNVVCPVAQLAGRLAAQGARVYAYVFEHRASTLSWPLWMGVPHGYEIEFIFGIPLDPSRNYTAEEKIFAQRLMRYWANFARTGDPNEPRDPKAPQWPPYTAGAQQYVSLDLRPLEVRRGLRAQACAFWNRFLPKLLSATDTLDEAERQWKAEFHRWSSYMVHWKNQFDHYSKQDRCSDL", "assay": "DRUGMATRIX: Acetylcholinesterase enzyme inhibition (substrate: acetylthiocholine)", "type": "cell-based, HEK293", "settings": "hek293; Not Active = under 50% inhibition at 10 µM", "values": [
      {"smiles": "C#C[C@]1(O)CC[C@H]2[C@@H]3[C@H](C)CC4=C(CCC(=O)C4)[C@H]3CC[C@@]21C", "note": "[TIBOLONE]", "IC50": "Not Active"},
      {"smiles": "C[N+]1(C)[C@@H]2C[C@@H](OC(=O)[C@H](CO)c3ccccc3)C[C@H]1[C@@H]1O[C@@H]12.[Br-]", "note": "[METHSCOPOLAMINE BROMIDE]", "IC50": "Not Active"},
      {"smiles": "CC[C@H](C)[C@@H](CO[C@@H](Cc1ccccc1)C(=O)N[C@@H](CCS(C)(=O)=O)C(=O)OC(C)C)NC[C@@H](N)CS", "IC50": "Not Active"},
      {"smiles": "CCN1CCCC1CNC(=O)c1cc(S(N)(=O)=O)ccc1OC", "note": "(configuration not stated) [SULPIRIDE]", "IC50": "Not Active"}
    ]}
  ]
}
